# Reference: ChEMBL document CHEMBL5346920, “Development of the "hidden" multi-target-directed ligands by AChE/BuChE for the treatment of Alzheimer's disease” (Eur J Med Chem, 2023)
# The source made the active and inactive calls. The calls are words filed in the database; no cut-off is given here.
# Tests used:
# [1] = species: Homo sapiens; assay: Selectivity index, ratio of IC50 for inhibition of human recombinant MAO-A expressed in baculovirus-infected BTI cells to IC50 for inhibition of human recombinant MAO-B expressed in baculovirus-infected BTI cells
# [2] = molecular target: Cholinesterase (Equus caballus) (UniProt P81908); assay: Reversible inhibition of equine serum BuChE assessed as enzyme activity using butyrylthiocholine chloride as substrate measured after dilution to 0.1XIC50 for 240 mins by Ellman's method; assay type: cell-free; design: scale not given: the % may be the effect or the level left
# Chain of Cholinesterase (Equus caballus) (P81908 whole entry): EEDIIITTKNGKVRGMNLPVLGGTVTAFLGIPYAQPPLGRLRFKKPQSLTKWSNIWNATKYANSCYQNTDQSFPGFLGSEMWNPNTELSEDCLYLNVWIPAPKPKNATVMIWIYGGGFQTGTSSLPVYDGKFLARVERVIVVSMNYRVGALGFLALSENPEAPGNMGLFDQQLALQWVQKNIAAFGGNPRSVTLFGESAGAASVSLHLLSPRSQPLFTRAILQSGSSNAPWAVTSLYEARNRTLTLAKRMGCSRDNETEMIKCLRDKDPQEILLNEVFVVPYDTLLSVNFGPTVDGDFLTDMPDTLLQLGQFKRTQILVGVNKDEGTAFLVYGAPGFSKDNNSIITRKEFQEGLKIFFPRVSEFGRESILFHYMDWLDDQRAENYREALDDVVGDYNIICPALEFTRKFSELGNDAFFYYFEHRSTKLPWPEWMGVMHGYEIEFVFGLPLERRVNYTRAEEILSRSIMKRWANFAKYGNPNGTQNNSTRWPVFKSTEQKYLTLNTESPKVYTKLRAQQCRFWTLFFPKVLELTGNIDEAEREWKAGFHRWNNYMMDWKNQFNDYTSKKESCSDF
# [3] = Acute toxicity in zebra fish assessed as maximum non-lethal dose; design: species or system Danio rerio; settings: zebrafish
# [4] = Acute toxicity in zebra fish assessed as decrease in swim bladder area at 2.5 ug/ml and measured at 120 hpf by microscopic analysis; design: species or system Danio rerio; settings: zebrafish; dose 2.5 µg/ml
# [5] = molecular target: T1, Amine oxidase [flavin-containing] B (Homo sapiens, UniProt P27338); assay: Inhibition of human recombinant MAO-B expressed in baculovirus-infected BTI cells using kynuramine as substrate incubated for 30 mins by fluorescence based analysis
# T1 sequence (P27338 whole entry): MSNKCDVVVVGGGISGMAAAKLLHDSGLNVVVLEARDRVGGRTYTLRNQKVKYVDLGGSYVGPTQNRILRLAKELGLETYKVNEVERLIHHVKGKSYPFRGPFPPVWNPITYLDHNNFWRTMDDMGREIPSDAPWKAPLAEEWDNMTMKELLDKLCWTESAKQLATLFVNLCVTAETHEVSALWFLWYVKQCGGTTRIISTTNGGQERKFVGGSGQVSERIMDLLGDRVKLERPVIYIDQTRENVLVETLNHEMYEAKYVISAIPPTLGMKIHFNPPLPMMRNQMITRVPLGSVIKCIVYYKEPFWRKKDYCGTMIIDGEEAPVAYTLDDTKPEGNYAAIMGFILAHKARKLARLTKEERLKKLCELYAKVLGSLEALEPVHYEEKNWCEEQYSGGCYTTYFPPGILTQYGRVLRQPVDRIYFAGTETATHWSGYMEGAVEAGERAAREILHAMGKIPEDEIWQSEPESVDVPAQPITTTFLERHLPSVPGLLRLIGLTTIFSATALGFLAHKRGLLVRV
# [6] = species: Danio rerio; assay: Antialzheimer activity against AlCl3-induced Alzheimer's disease zebra fish model assessed as total distance moved at 0.0049 ug/ml treated for 24 hrs and measured after 24 hrs under dark environment (reference value: 312 cm); assay type: functional; settings: dose 0.0049 µg/ml; time 48 hrs
# [7] = Acute toxicity in zebra fish assessed as effect on liver median fluorescence intensity at 0.3125 to 1.25 ug/ml and measured at 120 hpf by microscopic analysis; design: species or system Danio rerio; settings: zebrafish; dose 0.3125-1.25 µg/ml
# [8] = Stability of the compound in rat liver microsomes assessed as parent compound remaining at 10 ug/ml measured after 60 mins by UPLC-MS/MS analysis; assay type: ADME, Microsome; settings: at 10 µg/mL, read-out: Stability
# [9] = species: Danio rerio; assay: Antialzheimer activity against AlCl3-induced Alzheimer's disease zebra fish model assessed as total distance moved at 0.0195 ug/ml treated for 24 hrs and measured after 24 hrs under alternating light dark stimuli conditions (reference value: 543 cm); assay type: functional; settings: dose 0.0195 µg/ml; time 48 hrs
# [10] = species: Danio rerio; assay: Neuroprotective activity against AlCl3-induced Alzheimer's disease zebra fish model assessed as increase in ACh content at 0.0049 to 0.078 ug/ml treated for 24 hrs and measured after 24 hrs; assay type: functional, organism-based; settings: dose 0.0049-0.078 µg/ml, time 48.0 hrs
# [11] = species: Danio rerio; assay: Antialzheimer activity against AlCl3-induced Alzheimer's disease zebra fish model assessed as total distance moved at 0.0049 ug/ml treated for 24 hrs and measured after 24 hrs measured under light environment (reference value: 230 cm); assay type: functional; settings: dose 0.0049 µg/ml; time 48 hrs
# [12] = tested on: PC-12; assay: Neuroprotective activity against Amyloid beta(25 to 35)-induced cell injury in rat PC12 cells assessed as cell viability at 5 uM pretreated for 2 hrs followed by incubation with Abeta(25 to 35) for 24 hrs by CCK-8 assay (reference value: 41 to 58.6%); assay type: functional; settings: time 26 hrs, read-out: Activity
# [13] = molecular target: T2, Cholinesterase (Equus caballus, UniProt P81908); assay: Drug metabolism assessed as equine serum BuChE-mediated 3-(4-fluorophenyl)-1-(2-hydroxyphenyl)prop-2-en-1-one formation treated at 150 mmol/L with 0.25U BuChE and measured after 6 mins by HPLC analysis; assay type: ADME, cell-free; settings: horse, 0.1 h
# T2 sequence (P81908 whole entry): as the sequence (P81908 whole entry) above
# [14] = tested on: BV-2; assay: Anti-inflammatory activity against LPS-stimulated mouse BV-2 cells assessed as inhibition of LPS-induced NO production incubated for 24 hrs in presence of LPS; assay type: functional, cell-based; settings: dose 1-9 µM
# [15] = molecular target: Acetylcholinesterase (Electrophorus electricus, UniProt O42275); assay: Drug metabolism assessed as electric eel AChE-mediated 3-(4-fluorophenyl)-1-(2-hydroxyphenyl)prop-2-en-1-one formation treated at 150 mmol/L with 0.25U AChE and measured after 9 mins by HPLC analysis; assay type: ADME; settings: 0.15 h
# Chain of Acetylcholinesterase (O42275 whole entry): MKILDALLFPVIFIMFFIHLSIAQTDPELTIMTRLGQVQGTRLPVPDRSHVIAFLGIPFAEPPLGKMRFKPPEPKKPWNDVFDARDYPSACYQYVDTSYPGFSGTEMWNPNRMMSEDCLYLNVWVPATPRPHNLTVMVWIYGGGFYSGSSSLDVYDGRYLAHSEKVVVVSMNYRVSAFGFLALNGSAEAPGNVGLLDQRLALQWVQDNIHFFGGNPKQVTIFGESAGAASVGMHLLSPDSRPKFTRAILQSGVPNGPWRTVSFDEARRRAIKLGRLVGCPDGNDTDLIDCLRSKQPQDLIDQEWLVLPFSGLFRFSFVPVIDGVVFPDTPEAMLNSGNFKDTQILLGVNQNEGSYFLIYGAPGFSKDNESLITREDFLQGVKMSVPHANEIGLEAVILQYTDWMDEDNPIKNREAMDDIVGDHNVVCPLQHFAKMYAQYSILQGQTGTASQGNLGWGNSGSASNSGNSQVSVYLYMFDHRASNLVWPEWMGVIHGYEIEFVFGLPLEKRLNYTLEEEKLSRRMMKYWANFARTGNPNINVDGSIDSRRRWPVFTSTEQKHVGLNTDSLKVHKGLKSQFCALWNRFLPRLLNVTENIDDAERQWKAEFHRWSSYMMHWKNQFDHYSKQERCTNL
# [16] = molecular target: Cholinesterase (Equus caballus) (UniProt P81908); assay: Reversible inhibition of equine serum BuChE assessed as enzyme activity using butyrylthiocholine chloride as substrate measured after dilution to 0.1XIC50 by Ellman's method; assay type: cell-free; design: scale not given: the % may be the effect or the level left
# [17] = Stability of the compound in blank intestinal juice assessed as parent compound remaining at 1 mg/ml measured after 8 hrs by UPLC-MS/MS analysis; assay type: ADME; settings: read-out: Stability
# [18] = Metal chelating activity assessed as compound-Fe2+ complex formation at 37.5 uM incubated for 30 mins in presence of FeSO4 by UV-Vis spectrometry
# [19] = Selectivity index, ratio of IC50 for inhibition of electric eel AChE to IC50 for inhibition of equine serum BuChE
# [20] = species: Danio rerio; assay: Neuroprotective activity against AlCl3-induced Alzheimer's disease zebra fish model assessed as distance velocity at 0.0195 ug/ml treated for 24 hrs and measured after 24 hrs under alternating light dark stimuli conditions (reference value: 9 cm/min); assay type: functional; settings: dose 0.0195 µg/ml; time 48 hrs
# [21] = Stability of the compound in blank gastric juice assessed as parent compound remaining at 1 mg/ml measured after 8 hrs by UPLC-MS/MS analysis; assay type: ADME; settings: read-out: Stability
# [22] = molecular target: T2, Cholinesterase; assay: Inhibition of equine serum BuChE using butyrylthiocholine chloride as substrate by Ellman's method; assay type: cell-free
# [23] = tested on: BV-2; assay: Anti-inflammatory activity against LPS-stimulated mouse BV-2 cells assessed as inhibition of LPS-induced IL-6 production incubated for 24 hrs in presence of LPS; assay type: functional, cell-based; settings: dose 1-9 µM
# [24] = Acute toxicity in zebra fish assessed as effect on liver fluorescence area at 0.3125 to 1.25 ug/ml and measured at 120 hpf by microscopic analysis; design: species or system Danio rerio; settings: zebrafish; dose 0.3125-1.25 µg/ml
# [25] = Stability of the compound in artificial gastric juice assessed as parent compound remaining at 1 mg/ml measured after 8 hrs by UPLC-MS/MS analysis; assay type: ADME; settings: read-out: Stability
# [26] = Stability of the compound in rat plasma assessed as parent compound remaining at 10 ug/ml measured after 3 hrs by UPLC-MS/MS analysis; assay type: ADME, cell-free; settings: at 10 µg/mL, read-out: Stability
# [27] = species: Danio rerio; assay: Neuroprotective activity against AlCl3-induced Alzheimer's disease zebra fish model assessed as distance velocity at 0.0195 ug/ml treated for 24 hrs and measured after 24 hrs under light environment (reference value: 7.7 cm/min); assay type: functional; settings: dose 0.0195 µg/ml; time 48 hrs
smiles,measurement,setting,value
CCN(C)C(=O)Oc1ccccc1C(=O)/C=C/c1ccc(F)cc1,Ratio IC50,[1],20.1
same,Activity,[2],93.3%
same,Activity,[3],2.5 µg/mL
same,Activity,[4],Toxic
same,IC50,[5],1.9 µM
same,Activity,[6],391 cm
same,Activity,[7],Non-Toxic
same,"remaining at 1 h, 10 ug/ml",[8],96.2%
same,Activity,[9],922 cm
same,Activity,[10],Active
same,Activity,[11],373 cm
same,viability at 5 µM,[12],70.9%
same,Drug metabolism,[13],14.62 mmol/L
same,Activity,[14],Dose-Dependent Effect
same,Drug metabolism,[15],22.57 mmol/L
same,Activity,[16],52.6%
same,"remaining at 8 h, 1 mg/ml",[17],98.5%
same,Activity,[18],inactive
same,Ratio IC50,[19],0.43
same,Activity,[20],15.3 cm/min
same,"remaining at 8 h, 1 mg/ml",[21],103%
same,IC50,[22],12.4 µM
same,Activity,[23],Dose-Dependent Effect
same,Activity,[24],Non-Toxic
same,"remaining at 8 h, 1 mg/ml",[25],97.3%
same,"remaining at 3 h, 10 ug/ml",[26],99.3%
same,Activity,[27],11.5 cm/min
